Experimental data from US7550438B2, “Methods for production of growth-promoting proteins and peptides for kidney epithelial cells” (The University of Chicago, priority 1997, dated 2009).
“And” between values parts separate entries of the source, which are not always exact repeats. Identical values can stand only once. Like-named read-outs stand apart in the source and are kept apart here.

Assays:
[1] = system: monkey kidney epithelial cells of the BSC-1 line; assay: Growth-promoting (mitogenic) activity: number of cells in BSC-1 cultures counted four days after addition; format: cell-based, African green monkey; conditions: for EC50: read-out: Growth-Stimulation K½; for stimulation of growth (increase in cell number compared to control at four days): agent alone at maximal mitogenic concentration (14-Ser 0.5 μg/ml; EGF, IGF-I 50 ng/ml; acidic FGF 100 pg/ml; basic FGF 1,000 pg/ml; vasopressin 75 pg/ml; K 10.4 mM; Na 180 mM)
BSC-1 cells [2] = assay: Time of contact with cells required to commit them to accelerated growth (washout, count at four days); format: cell-based, African green monkey
Experimental: Confluent monolayers of BSC-1 cells are prepared as herein and exposed to the 14-Ser peptide (0.5 μg/ml) for different amounts of time (0 to 30 minutes). At the end of the defined exposure period, culture medium containing the mitogen was aspirated, the monolayer was rinsed to remove non-adherent peptide, and fresh medium was added. Four days later the number of cells in the culture was counted.
In these experiments a solution containing the peptide of interest was added to the cell monolayer; culture medium was then aspirated at a specified time thereafter. Then fresh medium without the peptide was added and the number of cells was counted four days later.

BSC-1 cells [3] = assay: Inhibition of WGF and WGF-derived peptide mitogenesis in BSC-1 cells; format: cell-based, African green monkey; conditions: TGF-β2 6 ng/ml; exogenous 14-Ser up to 5 μg/ml
Description: In these studies the pentamers, PQGNH (SEQ ID NO: 36) or YPQGN (SEQ ID NO: 3) were synthesized, purified by HPLC and then assayed for growth-promoting activity. […] Because the pentamers are not mitogenic, when they bind to the site, growth is not observed. After pentamers are bound to the site, the pentamers appear to prevent the hexapeptide from gaining access to the membrane.
Transforming growth factor (TGF)-β2 is an autocrine growth inhibitor secreted by BSC-1 cells that limits proliferation in culture. Exogenous TGF-β2 was added to the culture medium to determine its capacity to inhibit the growth-promoting effect of 14-Ser. TGF-β2 at a concentration of 1 ng/ml was sufficient to abolish the 25% stimulation of growth induced by 14-Ser. At a TGF-β2 concentration of 2 ng/ml, growth was inhibited by 30% in the presence or absence of 14-Ser; at 10 ng/ml, inhibition was 60%.
Because TGF-β2 inhibits proliferation induced by diverse mitogens, a more specific inhibitor was sought. […] Cells were preincubated for 30 minutes with the pentapeptide YPQGN (SEQ ID NO: 3). The culture medium was then aspirated, the monolayer was rinsed, fresh medium was added, and the number of cells counted 4 days later. Preincubation of cells with YPQGN (SEQ ID NO: 3) inhibited the mitogenic effect of the 6-amino acid peptide.

[4] = system: rats with mercuric chloride-induced acute renal failure; assay: Mercuric chloride-induced acute renal failure in rats: survival and renal function; format: in vivo, rat; conditions: given 24 hours before mercuric chloride (EGF 20 μg, s.c.)

AQPYPQGNHEASYG
EC50 ([1]; + heparin (1 μg/ml)): 40 nM
EC50 ([1]; + keratan sulfate (2 μg/ml for 5 minutes prior to peptide, b158; 10 μg/ml)): 67 nM
stimulation of growth (increase in cell number compared to control at four days) [1]: 25%
stimulation of growth (increase in cell number compared to control at four days) ([1]; listed as 14-Ser Peptide): 25-30%
stimulation of growth (increase in cell number compared to control at four days) ([1]; listed as 14-Ser peptide): 25-30% and 25%
EC50 ([1]; peptide alone, BSC-1 cells, 4 days in culture): 126 nM
exposure time for half-maximal stimulation (BSC-1 cells [2]; 14-Ser 0.5 μg/ml): 1 min
maximal growth stimulation after 2 minutes exposure (BSC-1 cells [2]; 14-Ser 0.5 μg/ml, count at four days): 29%
exposure time sufficient for maximal growth stimulation (commitment time) (BSC-1 cells [2]; peptide then washed off, cells counted four days later): 2 min
reversal of TGF-β2 growth inhibition (BSC-1 cells [3]): did not reverse growth inhibition
survival on day 4 ([4]; listed as 14-Ser): 71%
survival on day 4 ([4]; listed as 14-Ser WGF-derived peptide): 73%
